Data on 25 molecules can be found in ChEMBL document CHEMBL1201862, “PubChem BioAssay data set” (2004).

The source made the active and inactive calls.

Some targets named below: Cytochrome P450 2D6 (Homo sapiens, UniProt P10635); Cytochrome P450 3A4 (Homo sapiens, UniProt P08684); Cytochrome P450 2C9 (Homo sapiens, UniProt P11712).
The target of another experiment is Cytochrome P450 2C19 (Homo sapiens, UniProt P33261). As to the kind of experiment: Cytochrome panel assay with activity outcomes. Panel member name: p450-cyp2c19 Compounds with AC50 equal or less than 10 uM are considered active. The format is functional. Particulars: read-out: AC50.
A further experiment deals with T1, Cytochrome P450 1A2 (Homo sapiens, UniProt P05177).
T1 sequence (P05177 whole entry): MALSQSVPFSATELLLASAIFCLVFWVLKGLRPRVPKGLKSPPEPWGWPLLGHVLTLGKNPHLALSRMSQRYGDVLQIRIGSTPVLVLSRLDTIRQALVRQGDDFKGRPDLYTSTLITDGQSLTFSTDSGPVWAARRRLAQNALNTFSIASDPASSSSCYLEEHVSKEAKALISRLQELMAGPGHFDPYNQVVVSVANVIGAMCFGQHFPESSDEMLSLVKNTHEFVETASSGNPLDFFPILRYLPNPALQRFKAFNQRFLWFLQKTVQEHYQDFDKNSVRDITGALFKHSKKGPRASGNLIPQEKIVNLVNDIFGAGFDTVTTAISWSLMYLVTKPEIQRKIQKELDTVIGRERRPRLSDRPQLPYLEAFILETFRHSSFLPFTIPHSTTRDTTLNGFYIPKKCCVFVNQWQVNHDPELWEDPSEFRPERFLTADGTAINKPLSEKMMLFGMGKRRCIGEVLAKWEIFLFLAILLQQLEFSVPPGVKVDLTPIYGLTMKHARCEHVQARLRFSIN

Experiment [1] can be described thus: microbe, parasite or virus in culture. It counts as functional. The following applies: Mycobacterium tuberculosis.
The target of experiment [2] is T2, Calpain-2 catalytic subunit (Sus scrofa, UniProt P43367).
T2 sequence (P43367 whole entry): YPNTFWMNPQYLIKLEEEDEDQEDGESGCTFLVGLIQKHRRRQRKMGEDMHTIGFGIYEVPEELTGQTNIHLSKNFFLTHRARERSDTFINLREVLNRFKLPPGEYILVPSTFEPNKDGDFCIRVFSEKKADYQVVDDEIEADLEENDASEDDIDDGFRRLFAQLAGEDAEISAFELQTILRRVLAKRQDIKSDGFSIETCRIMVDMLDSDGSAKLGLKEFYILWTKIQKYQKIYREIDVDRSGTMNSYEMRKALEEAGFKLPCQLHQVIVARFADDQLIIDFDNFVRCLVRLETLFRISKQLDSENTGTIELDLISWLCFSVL
As to the kind of experiment: pig calpain II inhibitor potency, dose response, biochemical, fluorogenic peptide substrate (AID 1420). The format is functional.

In experiment [3] the test system is Streptococcus sp. 'group A'. As to the kind of experiment: growth inhibition of control SK(-) GAS strain, dose response, counter-screen for streptokinase expression inhibitor project, luminescence, kanamycin, BacTiterGlo, confirmation (AID 1900). It counts as functional, organism-based. (The purpose of a counterscreen is to sort out artefacts and off-target activity.)

The next experiment addresses T3, Streptokinase A (Streptococcus pyogenes serotype M1, UniProt P10520).
T3 sequence (P10520 whole entry): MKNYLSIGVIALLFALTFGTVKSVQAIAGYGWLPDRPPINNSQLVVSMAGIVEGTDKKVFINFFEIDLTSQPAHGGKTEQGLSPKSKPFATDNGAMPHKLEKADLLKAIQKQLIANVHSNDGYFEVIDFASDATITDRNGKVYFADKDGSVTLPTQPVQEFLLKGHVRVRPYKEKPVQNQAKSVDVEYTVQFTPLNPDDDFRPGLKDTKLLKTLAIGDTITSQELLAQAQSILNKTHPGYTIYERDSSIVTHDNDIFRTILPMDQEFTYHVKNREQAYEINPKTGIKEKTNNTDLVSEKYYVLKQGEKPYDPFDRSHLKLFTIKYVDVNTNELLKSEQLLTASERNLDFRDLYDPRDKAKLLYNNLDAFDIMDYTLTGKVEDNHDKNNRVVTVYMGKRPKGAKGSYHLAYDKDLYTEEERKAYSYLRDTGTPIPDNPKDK
As to the kind of experiment: S. pyogenes streptokinase expression inhibitors, potency, dose response, plasminogen activation absorbance, OD405 (AID 1914).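 Further: secreted streptokinase activity via plasminogen activation per viability signal from cell pellet.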 The format is functional, Streptococcus pyogenes M1 GAS.

The test system of another experiment is Streptococcus. As to the kind of experiment: Group A Streptococcus viability loss, dose response, counter-screen for streptokinase expression inhibitor project, luminescence, BacTiterGlo (AID 1915).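 Further: potency for reduction of bacterial viability or growth.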 The format is functional, organism-based.
Experiment [4] is described as follows: Luminescence Cell-Based Dose Retest to Confirm Inhibitors of Cancer Stem Cells. [Related pubchem assays (depositor defined):AID2717, AID2721]. It counts as functional. The following applies: Homo sapiens.
Experiment [5] in a line: NIH-3T3 fibroblast cytotoxicity, dose response, cytotoxicity control, cell-based, fluorescence, Alamar Blue, secondary assay (AID 2327).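 Further: NIH-3T3 mouse fibroblasts cultured with fluconazole at 8 µg/mL.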 The format is functional. A general note: Alamar Blue is a resazurin reagent that responds to reducing activity.
Experiment [6] in a line: C. albicans growth with fluconazole, confirmation, fluorescence, retest (AID 2467). It counts as functional, cell-based.
Experiment [7] can be described thus: inhibitors of intracellular T. cruzi replication, confirmation, NIH3T3 host cells, beta-gal luminescence (AID 2044).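 Further: intracellular parasites grown in NIH/3T3 mouse fibroblasts as host cells; luminescent beta-galactosidase reporter signal from transgenic T. cruzi replicating inside host cells; inhibitors lower the luminescence signal.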 It counts as functional, cell-based.
Experiment [8] can be described thus: cytotoxicity toward NIH3T3 fibroblasts, dose response, counter-screen, cell-based, ATP luminescence, mouse fibroblasts (AID 2010).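 Further: cells exposed to compound for about 90 hours before reading.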 It counts as functional.
In the next experiment the test system is INS1. As to the kind of experiment: beta cell apoptosis inhibitors, cytokine rescue, dose response, luminescence, retest (AID 449756).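 Further: cell death triggered by IL-1 beta plus TNF-alpha plus IFN-gamma mixture; protective hits raise ATP signal compared with cytokine alone wells.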 It counts as functional, cell-based. Particulars: Rattus norvegicus.

Sequence of Cytochrome P450 2D6 (P10635 whole entry): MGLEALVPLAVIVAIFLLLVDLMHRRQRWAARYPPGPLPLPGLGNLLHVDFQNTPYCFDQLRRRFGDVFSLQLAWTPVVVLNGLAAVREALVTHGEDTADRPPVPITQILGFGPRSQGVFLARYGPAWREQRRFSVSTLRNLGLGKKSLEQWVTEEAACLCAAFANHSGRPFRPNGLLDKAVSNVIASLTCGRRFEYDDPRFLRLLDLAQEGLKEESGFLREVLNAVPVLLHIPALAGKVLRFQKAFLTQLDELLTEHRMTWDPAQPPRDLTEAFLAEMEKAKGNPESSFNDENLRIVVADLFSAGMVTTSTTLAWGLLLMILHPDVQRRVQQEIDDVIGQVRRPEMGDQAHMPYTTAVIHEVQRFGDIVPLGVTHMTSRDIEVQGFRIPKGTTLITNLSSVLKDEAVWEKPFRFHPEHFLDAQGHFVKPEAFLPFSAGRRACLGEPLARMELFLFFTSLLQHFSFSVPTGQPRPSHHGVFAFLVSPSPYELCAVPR
Sequence of Cytochrome P450 2C19 (P33261 whole entry): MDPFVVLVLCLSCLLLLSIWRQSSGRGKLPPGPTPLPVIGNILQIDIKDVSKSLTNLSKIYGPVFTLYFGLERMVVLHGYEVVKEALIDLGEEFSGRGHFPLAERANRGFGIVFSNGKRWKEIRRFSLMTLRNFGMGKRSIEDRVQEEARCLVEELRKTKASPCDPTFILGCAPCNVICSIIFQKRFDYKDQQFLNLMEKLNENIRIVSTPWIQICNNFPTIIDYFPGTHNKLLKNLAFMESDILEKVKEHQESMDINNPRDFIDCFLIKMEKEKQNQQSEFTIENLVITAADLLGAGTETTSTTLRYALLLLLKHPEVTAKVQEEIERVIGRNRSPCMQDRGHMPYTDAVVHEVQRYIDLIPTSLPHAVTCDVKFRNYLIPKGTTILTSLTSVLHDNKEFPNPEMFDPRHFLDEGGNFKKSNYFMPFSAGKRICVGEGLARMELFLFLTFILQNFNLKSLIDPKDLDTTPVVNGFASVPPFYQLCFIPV
Sequence of Cytochrome P450 2C9 (P11712 whole entry): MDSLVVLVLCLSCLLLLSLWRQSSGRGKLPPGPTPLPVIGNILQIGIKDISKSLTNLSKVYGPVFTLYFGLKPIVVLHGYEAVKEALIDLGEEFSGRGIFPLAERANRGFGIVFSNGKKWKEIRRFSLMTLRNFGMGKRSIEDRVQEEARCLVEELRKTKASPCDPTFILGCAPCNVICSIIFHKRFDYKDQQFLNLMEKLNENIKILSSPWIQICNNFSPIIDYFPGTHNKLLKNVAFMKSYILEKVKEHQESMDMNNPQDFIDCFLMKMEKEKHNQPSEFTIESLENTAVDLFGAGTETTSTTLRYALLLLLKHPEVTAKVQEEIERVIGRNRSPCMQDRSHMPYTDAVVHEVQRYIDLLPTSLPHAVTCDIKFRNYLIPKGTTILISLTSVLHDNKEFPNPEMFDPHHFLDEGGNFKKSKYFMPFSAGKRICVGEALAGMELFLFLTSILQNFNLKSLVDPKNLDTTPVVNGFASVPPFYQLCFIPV
Sequence of Cytochrome P450 3A4 (P08684 whole entry): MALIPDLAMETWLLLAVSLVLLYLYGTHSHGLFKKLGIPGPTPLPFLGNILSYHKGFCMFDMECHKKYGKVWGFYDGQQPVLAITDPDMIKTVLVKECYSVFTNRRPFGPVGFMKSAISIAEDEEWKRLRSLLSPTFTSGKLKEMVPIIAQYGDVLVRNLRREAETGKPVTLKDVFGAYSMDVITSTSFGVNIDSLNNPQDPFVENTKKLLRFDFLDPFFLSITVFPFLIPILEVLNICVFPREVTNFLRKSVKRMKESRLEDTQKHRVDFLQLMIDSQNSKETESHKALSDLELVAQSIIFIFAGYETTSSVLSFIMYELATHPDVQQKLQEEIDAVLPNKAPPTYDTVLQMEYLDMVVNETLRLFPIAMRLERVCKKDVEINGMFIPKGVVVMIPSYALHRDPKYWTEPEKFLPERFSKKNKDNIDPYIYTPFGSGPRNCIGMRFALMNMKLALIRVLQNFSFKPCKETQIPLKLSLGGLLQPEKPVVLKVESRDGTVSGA

Regarding `c1ccc(CNc2nc(-c3cccnc3)nc3ccccc23)cc1`, the AC50 on Cytochrome P450 2C19 is 15.8 µM (active); on Cytochrome P450 2D6 it was 15.8 µM (active); at Cytochrome P450 1A2, 0.398 µM (active).

`Cc1cccc(N2CCN(CCCNC(=O)c3ccc(NC(=O)C4=CSCCO4)cc3)CC2C)c1` (centres undefined): in experiment [1], the CC50 is > 40 µM (active).

As to `NC(=O)CC(NC(=O)Cc1ccc(Br)cc1)c1ccc(NCC2CC2)c([N+](=O)[O-])c1` (centres undefined), the IC50 in [2] is 14.6 µM (not active).

Regarding `CCc1ccc(NC(=S)/N=C(\N)Nc2nc(C)c3cc(CC)ccc3n2)cc1`, in experiment [1], the CC50 is 17.4 µM (active).

`Cc1ccc(-c2nc3ccccc3o2)cc1NC(=O)Cc1cccs1`: the AC50 at Cytochrome P450 2C19 is 15.8 µM (inconclusive); on Cytochrome P450 1A2, 2 µM (inconclusive).

Take `CC(=O)NCc1c(Cl)cccc1-n1cccc1`: the AC50 is 11.2 µM (inconclusive) on Cytochrome P450 2C19, 15.8 µM (inconclusive) at Cytochrome P450 1A2, 39.8 µM (inconclusive) on Cytochrome P450 3A4 and 28.2 µM (inconclusive) on Cytochrome P450 2C9.

As for `O=C(c1ccc(Cl)cc1)c1oc2ccccc2c1CS(=O)(=O)c1ccccc1`, the IC50 in experiment [2] is reported as > 50 µM (not active).

On to `CCOC(=O)N1CCC2(CC1)C(C#N)=C(N)Oc1[nH]nc(CSc3ccc(C)cc3)c12`, for which the IC50 in [2] is recorded as 3.34 µM (not active).

In the case of `c1ccc2c(c1)-c1ccccc1C2N1C[C@H]2CC[C@H](CC2)C1`, on Cytochrome P450 1A2, the AC50 is 0.501 µM (inconclusive).

Turning to `CC(C)C[C@H](NC(=O)c1[nH]cnc1C(=O)N[C@H](C)c1ccccc1)C(=O)OC(C)(C)C`, the values for the EC50 (in [3]; at Streptokinase A; in the experiment with Streptococcus) were 3.86 µM (active), > 150 µM (not active) and 9.3 µM (active), respectively. Besides, the IC50 in experiment [2] was 11.7 µM (not active).

With `FC(F)(F)c1ccccc1-c1cncnc1NCCN1CCOCC1`, the AC50 was 20 µM (inconclusive) at Cytochrome P450 2C19, 15.8 µM (inconclusive) at Cytochrome P450 2D6 and 2.51 µM (inconclusive) on Cytochrome P450 1A2.

Turning to `CCc1ccccc1N(C(C)=O)c1nc(CN=C=S)cs1`, the IC50 in experiment [2] was 14.5 µM (not active).

Regarding `SC1=NC[C@H](Cc2ccccc2)N1CCCCC1CCCCC1`, in experiment [2], the IC50 is listed as 7.52 µM (not active). The concentration at half-maximal activity (AC50) in experiment [4] is 6.26 µM (active).

In the case of `Cc1ccc(CNC(=O)Cn2cncn2)cc1`, the AC50 at Cytochrome P450 2D6 is 17.8 µM (inconclusive); on Cytochrome P450 1A2, 39.8 µM (inconclusive); at Cytochrome P450 3A4, 14.1 µM (inconclusive).

For `CCOC(=O)c1ccccc1NC(=O)COc1coc(CN2CCc3ccccc32)cc1=O`, in experiment [1], the CC50 was > 40 µM (active).

For the molecule `O=C(O)C1CC=CCC1C(=O)N1CCN(c2nc(-c3ccccc3Cl)c3cc(Br)ccc3n2)CC1` (centres undefined), the CC50 in experiment [1] was 38.3 µM (active).

Regarding `CCc1ccc2oc(-c3ccc(OC)cc3)cc(=Nc3c(C)n(C)n(-c4ccccc4)c3=O)c2c1`, the EC50 in [5] was > 160 µM (inactive); in experiment [6], > 38 µM (not active); in [7], 1.94 µM (active); in [8] it was > 60 µM (not active). In addition, in experiment [1], the CC50 was 27.6 µM (active).

On to `COC(=O)C1CCN(CC(=O)Nc2sc3c(c2C#N)CCC3)CC1`, for which the AC50 at Cytochrome P450 1A2 is 15.8 µM (inconclusive).

Regarding `O=C(Nc1cccc(F)c1)N1CCCC2(CCN(C(=O)Oc3ccccc3)CC2)C1`, the AC50 is 25.1 µM (inconclusive) on Cytochrome P450 2C19, 10 µM (inconclusive) at Cytochrome P450 1A2 and 39.8 µM (inconclusive) at Cytochrome P450 2C9.

Regarding `CCOC(=O)/C(=N/Nc1ccc(OC)cc1)N1CCCc2ccccc21`, the CC50 in experiment [1] is > 40 µM (active).

Consider `N=C(N)SCc1cc(Cl)cc(Cl)c1O`, for which the AC50 on Cytochrome P450 1A2 is 5.01 µM (inconclusive).

As for `NCCCCNS(=O)(=O)c1cccc2c(Cl)cccc12`, the AC50 on Cytochrome P450 2D6 is 39.8 µM (inconclusive); at Cytochrome P450 1A2, 15.8 µM (inconclusive); at Cytochrome P450 3A4 it was 25.1 µM (inconclusive); at Cytochrome P450 2C9, 12.6 µM (inconclusive).

As for `C=C(C)CNC(=S)N/N=C/c1ccc(NC(C)=O)cc1`, the IC50 in experiment [2] is listed as 13.5 µM (not active).

As to `CCOc1ccc(/C=N/Nc2ccc(Cl)nn2)c(O)c1`, the CC50 in experiment [1] is 18.4 µM (active). Further, the AC50 with INS1 was 1.77 µM (active).

Take `COc1cc(/C=N/NC(=O)COc2cccc(F)c2)ccc1OS(=O)(=O)c1ccc(C)cc1`: in [2], the IC50 is reported as 2.21 µM (not active).

In general, AC50 refers to the concentration at which the activity in the assay is half-maximal. The term IC50 denotes the concentration at which inhibition is half-maximal. A higher IC50 goes with lower potency. As usually defined, the EC50 is the concentration needed to bring the measured effect to its halfway point.
